The values below come from patent US4363922A, “Esters of antibiotic nodusmicin” (priority 1981, dated 1982).

The structures appear in SMILES notation. In brackets after ≈: the same amount, converted by molar mass. Bounds are passed on as bounds.

One data set has as its system S.aureus UC-76. Kind of data set: Minimum Inhibitory Concentration, microplate broth-dilution, S. aureus UC-76. The settings on record: Staphylococcus aureus, UC76, read-out: MIC S.aureus UC-76, BHI broth; sensitive strain.
Regarding `COC1CC2C=CC3C4OC2(C(C)=CC(C)C(C(C)OC(=O)c2ccc[nH]2)OC1=O)C3C(O)C(C)C4O` (stereo not drawn) [U-60,907, 18-O--Pyrrole-2-carbonyl], the MIC – broadly, the lowest concentration found to suppress growth – came to 7.8 µg/mL (≈ 15.1 µM).
The same measure, in the same setting: as for `COC1CC2C=CC3C4OC2(C(C)=CC(C)C(C(C)O)OC1=O)C3C(O)C(C)C4OC(=O)c1cc([N+](=O)[O-])c[nH]1` (stereo not drawn) [U-61,462, 9-O--4-Nitropyrrole-2-carbonyl-], the figure is 15.6 µg/mL (≈ 27.8 µM).

The test system of a further data set is S.aureus UC-746. Kind of data set: Minimum Inhibitory Concentration, microplate broth-dilution, S. aureus UC-746. Conditions: Staphylococcus aureus, UC746, read-out: MIC S.aureus UC-746, BHI broth; strain resistant to tetracycline.
As for `COC1CC2C=CC3C4OC2(C(C)=CC(C)C(C(C)OC(=O)c2ccc[nH]2)OC1=O)C3C(O)C(C)C4O` (stereo not drawn) [U-60,907, 18-O--Pyrrole-2-carbonyl], the minimum inhibitory concentration (MIC) was determined as 15.6 µg/mL (≈ 30.3 µM).
Consider `COC1CC2C=CC3C4OC2(C(C)=CC(C)C(C(C)O)OC1=O)C3C(O)C(C)C4OC(=O)c1cc([N+](=O)[O-])c[nH]1` (stereo not drawn) [U-61,462, 9-O--4-Nitropyrrole-2-carbonyl-], for which the MIC was found to be 31.2 µg/mL (≈ 55.7 µM).

In a further data set the test system is S.aureus UC 80. Kind of data set: Dipped disc agar diffusion assay, S. aureus. The settings on record: Staphylococcus aureus, UC80, 16 h, read-out: Agar Diffusion 1 mg./ml. S.aureus UC 80 (inhibition zone), 1 mg./ml.; 12.7 mm paper disc; 16 hours. (In agar diffusion tests the substance spreads into inoculated agar from a disc or well.)
For the compound `COC1CC2C=CC3C4OC2(C(C)=CC(C)C(C(C)OC(=O)c2ccc[nH]2)OC1=O)C3C(O)C(C)C4O` (stereo not drawn) [U-60,907, 18-O--Pyrrole-2-carbonyl], the zone of inhibition at 1000 µg/mL stood at 27 mm.
In the case of `COC1CC2C=CC3C4OC2(C(C)=CC(C)C(C(C)OC(=O)c2ccc[nH]2)OC1=O)C3C(O)C(C)C4OC(=O)c1ccc[nH]1` (stereo not drawn) [U-60,908, 9,18-O--Dipyrrole-2-carbonyl-], the zone of inhibition at 1000 µg/mL was determined as 24 mm.
Same read-out and setting: the same measure for `COC1CC2C=CC3C4OC2(C(C)=CC(C)C(C(C)O)OC1=O)C3C(O)C(C)C4OC(=O)c1cc([N+](=O)[O-])c[nH]1` (stereo not drawn) [U-61,462, 9-O--4-Nitropyrrole-2-carbonyl-]: 20 mm.

The subject of a further data set is S.pyrogenes UC-152. Kind of data set: Minimum Inhibitory Concentration, microplate broth-dilution, S. pyrogenes UC-152. The settings on record: read-out: MIC S.pyrogenes UC-152, BHI broth.
Regarding `COC1CC2C=CC3C4OC2(C(C)=CC(C)C(C(C)OC(=O)c2ccc[nH]2)OC1=O)C3C(O)C(C)C4O` (stereo not drawn) [U-60,907, 18-O--Pyrrole-2-carbonyl], the minimal inhibitory concentration (MIC) is greater than 250 µg/mL.
Still for that read-out and setting: the same measure for `COC1CC2C=CC3C4OC2(C(C)=CC(C)C(C(C)O)OC1=O)C3C(O)C(C)C4OC(=O)c1cc([N+](=O)[O-])c[nH]1` (stereo not drawn) [U-61,462, 9-O--4-Nitropyrrole-2-carbonyl-]: 125 µg/mL (≈ 223 µM).

For the next data set, the system named is S.aureus UC-570. In words: Minimum Inhibitory Concentration, microplate broth-dilution, S. aureus UC-570. Conditions: Staphylococcus aureus, UC570, read-out: MIC S.aureus UC-570, BHI broth; sensitive strain.
Regarding `COC1CC2C=CC3C4OC2(C(C)=CC(C)C(C(C)OC(=O)c2ccc[nH]2)OC1=O)C3C(O)C(C)C4O` (stereo not drawn) [U-60,907, 18-O--Pyrrole-2-carbonyl], the MIC was found to be 3.9 µg/mL (≈ 7.56 µM).
On the same count and under the same terms, as for `COC1CC2C=CC3C4OC2(C(C)=CC(C)C(C(C)O)OC1=O)C3C(O)C(C)C4OC(=O)c1cc([N+](=O)[O-])c[nH]1` (stereo not drawn) [U-61,462, 9-O--4-Nitropyrrole-2-carbonyl-], the figure is 31.2 µg/mL (≈ 55.7 µM).

The next data set concerns S.lutea UC-130. Kind of data set: Dipped disc agar diffusion assay, S. lutea. Conditions: Micrococcus luteus, UC130, 16 h, read-out: Agar Diffusion 1 mg./ml. S.lutea UC-130 (inhibition zone).
For the compound `COC1CC2C=CC3C4OC2(C(C)=CC(C)C(C(C)O)OC1=O)C3C(O)C(C)C4OC(=O)c1ccccc1` (stereo not drawn) [9-O--benzoyl-, 9-O-benzoyl-nodusmicin], the zone of inhibition at 1000 µg/mL worked out at 30 mm.
Take `COC1CC2C=CC3C4OC2(C(C)=CC(C)C(C(C)OC(=O)c2ccc[nH]2)OC1=O)C3C(O)C(C)C4O` (stereo not drawn) [U-60,907, 18-O--Pyrrole-2-carbonyl]: the zone of inhibition at 1000 µg/mL worked out at 33 mm.
As for `COC1CC2C=CC3C4OC2(C(C)=CC(C)C(C(C)OC(=O)c2ccc[nH]2)OC1=O)C3C(O)C(C)C4OC(=O)c1ccc[nH]1` (stereo not drawn) [U-60,908, 9,18-O--Dipyrrole-2-carbonyl-], the zone of inhibition at 1000 µg/mL turned out to be 29 mm.
As for `COC1CC2C=CC3C4OC2(C(C)=CC(C)C(C(C)O)OC1=O)C3C(O)C(C)C4OC(=O)c1cc2ccccc2[nH]1` (stereo not drawn) [U-61,273, 9-O--Indole-2-carbonyl-], the zone of inhibition at 1000 µg/mL worked out at 22 mm.
On the same count and under the same terms, as for `COC1CC2C=CC3C4OC2(C(C)=CC(C)C(C(C)O)OC1=O)C3C(O)C(C)C4OC(=O)c1cc([N+](=O)[O-])c[nH]1` (stereo not drawn) [U-61,462, 9-O--4-Nitropyrrole-2-carbonyl-], the figure is 36 mm.

Staying with this data set, now noted: Micrococcus luteus, UC130, 16 h, read-out: zone of inhibition, S. lutea.
Turning to `COC1CC2C=CC3C4OC2(C(C)=CC(C)C(C(C)O)OC1=O)C3C(O)C(C)C4OC(=O)c1ccccc1` (stereo not drawn) [9-O--benzoyl-, 9-O-benzoyl-nodusmicin], the zone of inhibition at 1000 µg/mL was found to be 30 mm.

Test system in another data set: not listed separately
Kind of data set: Solubility noted in the MIC determination. Conditions: BHI broth.
Turning to `COC1CC2C=CC3C4OC2(C(C)=CC(C)C(C(C)O)OC1=O)C3C(O)C(C)C4OC(=O)c1ccccc1` (stereo not drawn) [9-O--benzoyl-, 9-O-benzoyl-nodusmicin], the “insoluble” value is recorded as “insoluble”.
With `COC1CC2C=CC3C4OC2(C(C)=CC(C)C(C(C)OC(=O)c2ccccc2)OC1=O)C3C(O)C(C)C4O` (stereo not drawn) [18-O--benzoyl-, 18-O-benzoyl-nodusmicin], the “insoluble” value is “insoluble”.
Same read-out and setting: the same measure for `COC1CC2C=CC3C4OC2(C(C)=CC(C)C(C(C)OC(=O)c2ccc[nH]2)OC1=O)C3C(O)C(C)C4OC(=O)c1ccc[nH]1` (stereo not drawn) [U-60,908, 9,18-O--Dipyrrole-2-carbonyl-]: “insoluble”.
Still for that read-out and setting: as for `COC1CC2C=CC3C4OC2(C(C)=CC(C)C(C(C)O)OC1=O)C3C(O)C(C)C4OC(=O)c1cc2ccccc2[nH]1` (stereo not drawn) [U-61,273, 9-O--Indole-2-carbonyl-], the entry is “insoluble”.
